The source of these data is BindingDB's records for doi:10.1128/AAC.37.4.810 (National Cancer Institute-Bethesda, 1993).

In this assay the target is T1, Dimer of Gag-Pol polyprotein [489-587] (Human immunodeficiency virus 1, UniProt P12497).
T1 construct: 489-587
As to the kind of experiment: Protease Inhibition Assay. The note with it: pH 6.2; 37 °C. As to the method: Inhibition constants were determined by a fluorometric assay with the fluorogenic substrate Arg-Glu(EDANS)-Ser-Gln-Asn-Tyr-Pro-Ile-Val-Lys(DABCYL)-Arg. The data were analyzed with the mathematical model for tight-binding inhibitors in which the concentration of inhibitor is less than or equal to the enzyme concentration. The data were fitted by nonlinear regression analysis to the equation with program Enzfitter (version 1.05).

Usually Ki stands for a measure of affinity in units of concentration, obtained from inhibition or displacement. A lower Ki goes with higher affinity. As for `CSC[C@H](NC(=O)COc1cccc2cnccc12)C(=O)N[C@@H](Cc1ccccc1)[C@H](O)C(=O)N1CSC[C@H]1C(=O)NC(C)(C)C` [Kynostatin 272], the Ki came out at 5.5 pM. `CC(C)(C)NC(=O)[C@H]1N(C(=O)[C@@H](O)[C@H](Cc2ccccc2)NC(=O)[C@H](CC(N)=O)NC(=O)COc2cccc3ccccc23)CSC1(C)C` [Noa-Asn-Apns-Dmt-NH-tBu] displayed a Ki of 6.8 pM. Compound `CSC[C@H](NC(=O)COc1cccc2cnccc12)C(=O)N[C@@H](Cc1ccccc1)[C@H](O)C(=O)N1CSC(C)(C)[C@H]1C(=O)NC(C)(C)C` displayed an inhibition constant Ki of 2.3 pM.
